Reference: ChEMBL document CHEMBL4732177 (J Med Chem, 2021)
Activity calls are given as the source filed them. Bridge positions count the residues as written; N and C are the ends. Square brackets hold non-standard residues; d marks the D form. Peptide text beside a SMILES is read from it. Aad = N[C@@H](CCCC(=O)O)C(=O)O

Experiments:
[1] = target: T1, Neurotensin receptor type 2 (Homo sapiens, UniProt O95665); test: Binding affinity to NTS2 (unknown origin)
[2] = Toxicity in Sprague-Dawley rat assessed as induction of drowsiness at 1 microg/kg, IT; conditions: in vivo, icv_or_intrathecal, 0.001 mg/kg, dose 1 µg/kg
[3] = test system: Rattus norvegicus; test: Antinociceptive activity in Sprague-Dawley rat model of formalin-induced nociception pain assessed as reduction in pain behaviour by measuring less lifting of formalin injected hind paw during inflammatory phase at 1 microg/kg, IT; assay type: functional, organism-based; conditions: dose 1.0 µg/kg
[4] = Toxicity in Sprague-Dawley rat assessed as induction of tremor at 1 microg/kg, IT; conditions: in vivo, icv_or_intrathecal, 0.001 mg/kg, dose 1 µg/kg
[5] = Toxicity in Sprague-Dawley rat assessed as induction of dizziness at 1 microg/kg, IT; conditions: in vivo, icv_or_intrathecal, 0.001 mg/kg, dose 1 µg/kg
[6] = Toxicity in Sprague-Dawley rat assessed as induction of abnormal gait at 1 microg/kg, IT; conditions: in vivo, icv_or_intrathecal, 0.001 mg/kg, dose 1 µg/kg
[7] = Toxicity in Sprague-Dawley rat assessed as induction of hyperactivity at 1 microg/kg, IT; conditions: in vivo, icv_or_intrathecal, 0.001 mg/kg, dose 1 µg/kg
[8] = test system: Rattus norvegicus; test: Antinociceptive activity in Sprague-Dawley rat model of formalin-induced nociception pain assessed as reduction in pain behaviour by measuring less lifting of formalin injected hind paw during acute phase at 1 microg/kg, IT measured for 9 mins; assay type: functional, organism-based; conditions: dose 1.0 µg/kg
[9] = Toxicity in Sprague-Dawley rat assessed as induction of ataxia at 1 microg/kg, IT; conditions: in vivo, icv_or_intrathecal, 0.001 mg/kg, dose 1 µg/kg
[10] = target: Neurotensin receptor type 1 (Mus musculus, UniProt O88319); test: Displacement of [3H]-neurotensin from NTS1 in mouse brain membrane incubated for 30 mins by liquid scintillation counter analysis; assay type: cell membranes
[11] = test system: Rattus norvegicus; test: Antinociceptive activity in Sprague-Dawley rat model assessed as maximum possible effect at 150 microg/kg, IT measured every 10 mins for 60 mins by radiant heat tail-flick test relative to control; assay type: functional; conditions: dose 150 µg/kg, 1 h
[12] = Cardiotoxicity in Sprague-Dawley rat assessed as decrease in mean arterial blood pressure at 0.1 mg/kg, iv measured up to 1000 seconds; assay type: toxicity, organism-based; conditions: in vivo, time <=1000 sec
[13] = test system: Rattus norvegicus; test: Antinociceptive activity in Sprague-Dawley rat model assessed as maximum possible effect at 60 microg/kg, IT measured every 10 mins for 60 mins by radiant heat tail-flick test relative to control; assay type: functional; conditions: dose 60 µg/kg, 1 h
[14] = Cardiotoxicity in Sprague-Dawley rat assessed as decrease in mean arterial blood pressure at 0.01 to 1 mg/kg, iv measured up to 1000 seconds; assay type: toxicity, organism-based; conditions: in vivo, dose 0.01-1 mg/kg, time <=1000 sec
[15] = Cardiotoxicity in Sprague-Dawley rat assessed as induction of […] at 1 mg/kg, iv measured up to 1000 seconds; assay type: toxicity, organism-based; conditions: in vivo, 0.2778 h, time 1000 sec
[16] = test system: Rattus norvegicus; test: Antinociceptive activity in Sprague-Dawley rat model assessed as increased in tail withdrawal latency administered intrathecally measured every 10 mins for 60 mins by radiant heat tail-flick test; assay type: functional, organism-based; conditions: dose 10-150 µg/kg
[17] = test system: Rattus norvegicus; test: Antinociceptive activity in Sprague-Dawley rat model of formalin-induced nociception pain assessed as reduction in pain behaviour by measuring less lifting of formalin injected hind paw during acute phase at 30 to 150 microg/kg, IT measured for 9 mins; assay type: functional, organism-based; conditions: dose 30-150 µg/kg
[18] = Stability of compound in rat plasma assessed as half life at 1 mM incubated for 1 to 20 mins by UPLC-MS analysis; assay type: ADME, cell-free; conditions: time 1-20 min
[19] = test system: Rattus norvegicus; test: Antinociceptive activity in Sprague-Dawley rat model assessed as maximum possible effect at 10 microg/kg, IT measured every 10 mins for 60 mins by radiant heat tail-flick test relative to control; assay type: functional; conditions: dose 10 µg/kg, 1 h
[20] = test system: Rattus norvegicus; test: Antiallodynic activity in Sprague-Dawley rat model of complete Freund's adjuvant-induced chronic inflammatory pain assessed as increase in paw withdrawl threshold at 150 microg/kg, IT dosed on day 7 and 14 measured at 15 to 120 mins post dose relative to control; assay type: functional; conditions: dose 150 µg/kg; time 7-14 day
[21] = Stability of compound in rat CSF assessed as half life at 1 mM incubated for 24 hrs by UPLC-MS analysis; assay type: ADME, tissue-based, Cerebrospinal fluid
[22] = test system: Ileum; test: Myorelaxant activity in Sprague-Dawley rat ileum assessed as reduction in carbachol-induced contractions at 10 ^-11 to 10^-5 M by force transducer relaxation assay; assay type: tissue-based; conditions: dose lower 1e-05 µM, dose upper 10 µM
[23] = test system: Rattus norvegicus; test: Antinociceptive activity in Sprague-Dawley rat model assessed as maximum possible effect at 30 microg/kg, IT measured every 10 mins for 60 mins by radiant heat tail-flick test relative to control; assay type: functional; conditions: dose 30 µg/kg, 1 h
[24] = test system: Rattus norvegicus; test: Antinociceptive activity in Sprague-Dawley rat model assessed as maximum efficacy causing increase in tail withdrawal latency administered intrathecally measured every 10 mins for 60 mins by radiant heat tail-flick test; assay type: functional; conditions: 1 h
[25] = target: T1, Neurotensin receptor type 2; test: Displacement of [125I]Tyr3-neurotensin from human recombinant NTS2 stably expressed in human 1321N1 cell membranes incubated for 60 mins by gamma counter analysis; set-up: species or system Cell membrane
[26] = test system: Rattus norvegicus; test: Antinociceptive activity in Sprague-Dawley rat model assessed as effective dose administered intrathecally and co-treated with opioid antagonist naloxone and measured every 10 mins for 60 mins by radiant heat tail-flick test; assay type: functional, organism-based
[27] = target: T2, Neurotensin receptor type 1 (Homo sapiens, UniProt P30989); test: Displacement of [125I]Tyr3-neurotensin from human recombinant NTS1 stably expressed in CHO-K1 cell membranes incubated for 60 mins by gamma counter analysis; set-up: species or system Cell membrane
[28] = Induction of hypothermia in Sprague-Dawley rat assessed as reduction in body temperature at 150 microg/kg, IT measured every 10 mins upto 60 mins by thermistor probe analysis; conditions: in vivo, icv_or_intrathecal, 0.15 mg/kg, dose 150 µg/kg
[29] = test system: Rattus norvegicus; test: Antinociceptive activity in Sprague-Dawley rat model of formalin-induced nociception pain assessed as reduction in pain behaviour by measuring less lifting of formalin injected hind paw during inflammatory phase at 30 to 150 microg/kg, IT; assay type: functional, organism-based; conditions: dose 30-150 µg/kg, time 21-60 min
[30] = test system: Rattus norvegicus; test: Antinociceptive activity in Sprague-Dawley rat model assessed as effective dose administered intrathecally and measured every 10 mins for 60 mins by radiant heat tail-flick test; assay type: functional; conditions: central, 1 h
[31] = test system: Rattus norvegicus; test: Antinociceptive activity in Sprague-Dawley rat model assessed as maximum possible effect at 90 microg/kg, IT measured every 10 mins for 60 mins by radiant heat tail-flick test relative to control; assay type: functional; conditions: dose 90 µg/kg, 1 h
[32] = target: T2, Neurotensin receptor type 1; test: Displacement of [125I]Tyr3-neurotensin from human recombinant NTS1 stably expressed in CHO cell membranes; set-up: species or system Cell membrane

T1 sequence (O95665 whole entry): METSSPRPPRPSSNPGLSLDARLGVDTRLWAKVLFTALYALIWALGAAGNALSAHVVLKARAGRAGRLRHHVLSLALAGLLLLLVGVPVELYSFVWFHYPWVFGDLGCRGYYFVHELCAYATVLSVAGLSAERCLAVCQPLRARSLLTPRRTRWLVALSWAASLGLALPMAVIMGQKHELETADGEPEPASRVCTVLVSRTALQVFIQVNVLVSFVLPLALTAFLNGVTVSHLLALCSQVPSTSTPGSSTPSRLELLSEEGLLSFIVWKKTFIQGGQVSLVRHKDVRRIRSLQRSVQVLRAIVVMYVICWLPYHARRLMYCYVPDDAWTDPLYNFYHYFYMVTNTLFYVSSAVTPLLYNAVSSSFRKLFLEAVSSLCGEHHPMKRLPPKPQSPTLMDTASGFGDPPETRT
T2 sequence (P30989 whole entry): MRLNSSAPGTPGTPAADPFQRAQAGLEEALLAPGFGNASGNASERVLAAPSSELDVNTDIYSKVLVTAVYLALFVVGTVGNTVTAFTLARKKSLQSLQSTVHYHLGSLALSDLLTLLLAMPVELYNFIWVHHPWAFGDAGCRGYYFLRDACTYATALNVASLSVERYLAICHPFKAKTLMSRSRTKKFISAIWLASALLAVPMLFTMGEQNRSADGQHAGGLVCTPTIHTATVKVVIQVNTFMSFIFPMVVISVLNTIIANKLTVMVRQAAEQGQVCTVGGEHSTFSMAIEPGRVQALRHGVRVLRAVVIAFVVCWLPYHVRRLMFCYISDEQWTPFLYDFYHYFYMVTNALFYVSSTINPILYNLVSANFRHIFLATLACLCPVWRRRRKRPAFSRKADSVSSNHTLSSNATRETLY
Sequence of Neurotensin receptor type 1 (Mus musculus, UniProt O88319) (O88319 whole entry): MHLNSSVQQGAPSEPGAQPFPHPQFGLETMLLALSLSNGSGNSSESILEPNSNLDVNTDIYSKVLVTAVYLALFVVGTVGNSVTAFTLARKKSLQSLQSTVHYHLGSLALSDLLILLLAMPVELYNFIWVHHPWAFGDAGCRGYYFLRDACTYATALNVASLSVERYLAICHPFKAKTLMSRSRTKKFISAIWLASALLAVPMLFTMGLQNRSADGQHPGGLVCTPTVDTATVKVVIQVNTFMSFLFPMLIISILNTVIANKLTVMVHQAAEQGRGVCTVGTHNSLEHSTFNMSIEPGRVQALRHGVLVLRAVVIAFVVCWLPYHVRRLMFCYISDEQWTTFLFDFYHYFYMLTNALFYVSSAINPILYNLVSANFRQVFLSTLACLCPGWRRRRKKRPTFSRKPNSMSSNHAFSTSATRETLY

Molecule `CC[C@H](C)[C@H](NC(=O)[C@@H]1Cc2ccc(O)c(c2)C/C=C/CNCCCC[C@H](N)C(=O)N[C@@H](CCCCN)C(=O)N2CCC[C@H]2C(=O)N1)C(=O)N[C@@H](CC(C)C)C(=O)O` has a Ki [1] of 11 µM.
In the case of `CSCC[C@@H]1NC(=O)[C@H](CC(C)C)NC(=O)[C@H](CCCNC(=N)N)NC(=O)[C@H](CO)NC(=O)[C@@H]2CSSC[C@@H]3NC(=O)[C@H](CO)NC(=O)CNC(=O)[C@H]([C@@H](C)O)NC(=O)[C@H](CSSC[C@H](N)C(=O)N[C@@H](CCCCN)C(=O)NCC(=O)N[C@@H](CCCCN)C(=O)NCC(=O)N[C@@H](C)C(=O)N[C@@H](CCCCN)C(=O)N2)NC(=O)[C@H](CSSC[C@@H](C(N)=O)NC(=O)[C@H](CCCCN)NC(=O)CNC(=O)[C@H](CO)NC(=O)[C@H](CCCNC(=N)N)NC3=O)NC(=O)[C@H](CC(=O)O)NC(=O)[C@H](Cc2ccc(O)cc2)NC1=O` [ZICONOTIDE], the Activity [2] is reported as “Toxic”, the Activity [3] is reported as “Active” and the Activity [4] is reported as “Toxic”. For the same molecule, the Activity [5] was “Toxic”, the Activity [6] was “Toxic” and the Activity [7] was “Toxic”. For the same molecule, the Activity [8] was “Active” and the Activity [9] was “Toxic”.
`CC(C)C[C@H](NC(=O)[C@@H]1CCCC(=O)N[C@@H](CCCNC(=N)N)C(=O)N[C@@H](CCCCN)C(=O)N2CCC[C@H]2C(=O)N[C@@H](Cc2c[nH]c3ccccc23)C(=O)N1)C(=O)O` (RKPW[Aad]L-OH; lactam N-5) showed a Ki [10] of 0.016 µM.
`CC[C@H](C)[C@H](NC(=O)[C@@H]1Cc2ccc(O)c(c2)C/C=C/CNCCC[C@H](N)C(=O)N[C@@H](CCCCN)C(=O)N2CCC[C@H]2C(=O)N1)C(=O)N[C@@H](CC(C)C)C(=O)O` gave an MPE [11] of 50% and a Ki [1] of 0.0045 µM.
For `CC(C)C[C@H](NC(=O)[C@H](Cc1ccc(O)cc1)NC(=O)[C@@H]1C/C=C\C[C@H](N)C(=O)N[C@@H](CCCCN)C(=O)N[C@@H](CCCCN)C(=O)N1)C(=O)O`, the Activity [12] was “Non-Toxic”, the MPE [13] was 73.1% and the Activity [14] was “Non-Toxic”. The Activity [15] was “Toxic”, the Activity [16] was “Dose-dependent effect” and the Activity [17] was “Active”. For the same molecule, the half-life at 1000 µM [18] was 15 min, the MPE [19] was 13.1% and the MPE [11] was 98.5%. The Activity [20] was “<=45%”, the half-life at 1000 µM [21] was greater than 1440 min and the Activity [22] was “Non-Toxic”. It also gave an MPE [23] of 32.5%, an Emax [24] of 90 µg/kg and a Ki [25] of 0.05 µM. For the same molecule, the Activity [26] was “Active”, the Ki [27] was greater than 100 µM and the Activity [28] was “Non-Toxic”. For the same molecule, the Activity [29] was “Active”, the ED50 [30] was 0.0438 mg/kg and the MPE [31] was 98.6%.
Molecule `CC[C@H](C)[C@H](NC(=O)[C@@H]1Cc2ccc(cc2)OCCCCCC(=O)N[C@H](CCCNC(=N)N)C(=O)N2CCC[C@H]2C(=O)N1)C(=O)N[C@@H](CC(C)C)C(=O)O` has a Ki [32] of 0.45 µM.
